Columns and labels:
[1] = test system: L. donovani promastigotes; experiment: Antileishmanial activity against L. donovani promastigotes (MTT assay); format: cell-based; settings: Leishmania donovani; promastigotes, 72 h, MTT; read-out: EC50 L. donovani Pro.
Experimental: The Leishmania species used in this study were L. donovani (MHOM/IN/00/DEVI) purchased from CNR Leishmania (Montpellier, France). Leishmania promastigote forms were grown in Schneider’s Drosophila medium (Life Technologies, Saint-Aubin, France) supplemented with 100 U/mL penicillin, 100 µg/mL streptomycin, 2 mM L-glutamine and 20% FCS (Life Technologies, Saint-Aubin, France) at 27 °C. The in vitro evaluation of the tested compound’s antileishmanial activity on promastigote forms was carried out by MTT assay according to the Mosmann protocol with some modifications. Briefly, promastigotes in log-phase were incubated at an average density of 10^6 parasites/mL in sterile 96-well plates with various concentrations of compound dissolved in DMSO (final concentration less than 0.5% v/v), in duplicate. Appropriate controls treated with DMSO, Miltefosine, Amphotericin B, Fexinidazole, and Fexinidazole sulfone (reference drugs purchased from Sigma-Aldrich, Saint-Louis, Missouri, USA) were added to each set of experiments. After a 72 h incubation period at 27 °C, parasitic metabolic activity was determined. Each plate-well was then microscope-analyzed to detect any precipitate formation. 20 µL of MTT (3-(4,5-dimethylthiazol-2-yl)-2,5-diphenyltetrazolium bromide) (Sigma-Aldrich, Saint-Louis, Missouri, USA) solution (5 mg/mL in PBS) were added to each well and incubated for 4 h at 27 °C. The enzyme reaction was then stopped by addition of 100 µL of 50% isopropanol–10% sodium dodecyl sulfate. Plates were shaken vigorously at 300 rpm for 10 min. The absorbance was measured at 570 nm in a BIO-TEK Elx808 (Biotek, Colmar, France) absorbance microplate reader. […] EC50 values were calculated by non-linear regression analysis processed dose-response curves, using TableCurve 2D V5.0 software (Systat Software Inc. (Palo Alto, CA, USA)). EC50 values represent the mean value calculated from at least three separate experiments.

[2] = test system: L. infantum intracellular amastigotes; experiment: Antileishmanial activity on L. infantum intracellular (intra-THP1 macrophage) amastigotes; format: cell-based; settings: Leishmania infantum, THP-1; intramacrophage (THP1) amastigotes, 120 h; read-out: EC50 L. infantum Intra. Ama.
Experimental: The undifferentiated THP1 human monocyte cells (acute monocytic leukemia cell line purchased from ATCC, ref TIB-202) were grown in RPMI 1640 medium (Life Technologies, Saint-Aubin, France) supplemented with 10% FCS (Life Technologies, Saint-Aubin, France), 100 U/mL penicillin, 100 µg/mL streptomycin and 2 mM L-glutamine at 37 °C, 5% CO2. The culture was maintained between 3.10^5 and 1.10^6 cells/mL. The in vitro evaluation of the antileishmanial activity on intracellular amastigote forms of the tested compound was assessed as below.
Briefly, 200 μL of THP-1 cells with Phorbol 12-Myristate 13-Acetate (final concentration 50 ng/mL) were seeded in 96-well plates at an average density of 0.77 × 10^5 cells/mL and incubated for 96 h at 37 °C, 5% CO2. Promastigotes were centrifuged at 3000 rpm for 10 min and the supernatant replaced by the same volume of complete RPMI pH 5.4 and incubated for 24 h at 27 °C. Differentiated THP-1 cells were then infected by acidified promastigotes with an infection ratio of twenty parasites for one macrophage and incubated for 24 h at 37 °C, 5% CO2.
• Luciferase activity and determination of EC50 were performed as above.

[3] = Cytotoxicity evaluation on HepG2 cell line (MTT); format: cell-based; settings: human, HepG2 cells
Experimental: The tested molecules’ cytotoxicity was assessed according to the method of Mosmann with slight modifications. […] Triplicate assays were performed for each sample. Each plate-well was then microscope-examined to detect possible precipitate formation before the medium was aspirated from the wells. 100 µL of MTT (3-(4,5-dimethyl-2-thiazolyl)-2,5-diphenyl-2H-tetrazolium bromide) solution (0.5 mg/mL in medium without FCS) were then added to each well. […] Plates were shaken vigorously (700 rpm) for 10 min. The absorbance was measured at 570 nm with 630 nm as reference wavelength using a BIO-TEK ELx808 Absorbance Microplate Reader. DMSO was used as blank and doxorubicin (purchased from Sigma Aldrich) as positive control. Cell viability was calculated as percentage of control (cells incubated without compound). […] (Palo Alto, CA, USA)). CC50 values represent the mean value calculated from three separate experiments.

[4] = Cytotoxicity on THP-1 cell line (MTT); format: cell-based; settings: human, THP-1 cells, THP1 cell line
Experimental: The plates were incubated for 72 h at 37 °C. Each well plate was then microscope-examined for detecting possible precipitate formation before the medium was aspirated from the wells. 100 µL of MTT solution (0.5 mg/mL in medium) were then added to each well. Cells were incubated for 2 h at 37 °C. […] Plates were shaken vigorously (300 rpm) for 10 min. The absorbance was measured at 570 nm using a BIO-TEK ELx808 Absorbance Microplate Reader. DMSO was used as blank and doxorubicin (purchased from Sigma Aldrich) as positive control. Cell viability was calculated as percentage of control (cells incubated with DMSO). […] (Palo Alto, CA, USA). CC50 values represent the mean value calculated from three separate experiments.

[5] = Redox potential of the nitro group by cyclic voltammetry; format: physicochemical; settings: cyclic voltammetry in DMSO, corrected versus NHE
Experimental: Voltammetric measurements were carried out with a potentiostat Autolab PGSTAT100 (ECO Chemie, Utrecht, The Netherlands) controlled by GPES 4.09 software (ECO Chemie, Utrecht, The Netherlands). Experiments were performed at room temperature in a homemade airtight three–electrode cell connected to a vacuum/argon line. The reference electrode consisted of a saturated calomel electrode (SCE) separated from the solution by a bridge compartment. The counter electrode was a platinum wire of 1 cm^2 apparent surface. The working electrode was a GC microdisk (1.0 mm in diameter–Bio-logic SAS). The supporting electrolyte (nBu4N)[PF6] (Fluka, 99% puriss electrochemical grade) and the solvent DMSO (Sigma-Aldrich puriss p.a. dried <0.02% water) were used as received and simply degassed under argon. The solutions used during electrochemical analyses were typically 10^−3 M in compound and 0.1 M in supporting electrolyte. Before each measurement, the solutions were degassed by bubbling Ar, and the working electrode was polished with a polishing machine (Presi P230, Eybens, France). Under the experimental conditions adopted in this work, the half-wave potential (E1/2) of the ferrocene Fc+/Fc couple in DMSO was E1/2 = 0.45 V vs. SCE. Experimental peak potentials were measured versus SCE and converted to NHE by adding 0.241 V.

| Compound | EC50 [1] [µM] | EC50 [2] [µM] | CC50 at 72 h [3] [µM] | CC50 at 72 h [4] [µM] | melting point [°C] | E0 (redox potential of the nitro group) [5] [V] |
| --- | --- | --- | --- | --- | --- | --- |
| O=[N+]([O-])c1c(CS(=O)(=O)CCC(F)(F)F)nc2c(S(=O)(=O)c3ccc(Cl)cc3)cc(Cl)cn12 [Compound 6b, 6-Chloro-8-[(4-Chlorophenyl)sulfonyl]-3-Nitro-2-[(3,3,3-Trifluoropropylsulfonyl)methyl] imidazo[1,2-a]pyridine] | 1.3 ± 0.2 | 8.3 ± 0.8 | > 10 | > 100 | 233 | – |
| COc1ccc(S(=O)(=O)Cc2nc3c(Sc4ccc(Cl)cc4)cc(Cl)cn3c2[N+](=O)[O-])cc1 [Compound 3f, 6-Chloro-8-[(4-Chlorophenyl)thio]-2-[(4-Methoxyphenylsulfonyl)methyl]-3-Nitroimidazo[1,2-a]pyridine] | 1.2 ± 0.1 | 0.9 ± 0.1 | > 3.9 | > 50 | 214 | −0.66 |
| O=[N+]([O-])c1c(CS(=O)(=O)c2ccc(F)cc2)nc2c(Sc3ccc(Cl)cc3)cc(Cl)cn12 [Compound 3c, 6-Chloro-8-[(4-Chlorophenyl)thio]-2-[(4-Fluorophenylsulfonyl)methyl]-3-Nitroimidazo[1,2-a]pyridine] | 0.9 ± 0.1 | 1.6 ± 0.1 | > 15.6 | > 100 | 197 | −0.61 |
| O=[N+]([O-])c1c(CS(=O)(=O)c2ccc(OC(F)(F)F)cc2)nc2c(Sc3ccc(Cl)cc3)cc(Cl)cn12 [Compound 3e, 6-Chloro-8-[(4-Chlorophenyl)thio]-3-Nitro-2-[(4-Trifluoromethoxyphenylsulfonyl)methyl]imidazo[1,2-a]pyridine] | 2.6 ± 0.2 | 1.6 ± 0.1 | > 12.5 | > 100 | 173 | −0.66 |
| O=[N+]([O-])c1c(CS(=O)(=O)c2ccc(C(F)(F)F)cc2)nc2c(Sc3ccc(Cl)cc3)cc(Cl)cn12 [Compound 3d, 6-Chloro-8-[(4-Chlorophenyl)thio]-3-Nitro-2-[(4-Trifluoromethylphenylsulfonyl)methyl]imidazo[1,2-a]pyridine] | 1.8 ± 0.2 | 4.4 ± 0.2 | > 3.9 | > 50 | 222 | −0.56 |
| O=[N+]([O-])c1c(CS(=O)(=O)c2ccc(Cl)cc2)nc2c(Sc3ccc(Cl)cc3)cc(Cl)cn12 [Compound 3b, 6-Chloro-2-[(4-Chlorophenylsulfonyl)methyl]-8-[(4-Chlorophenyl)thio]-3-Nitroimidazo[1,2-a]pyridine] | 1.4 ± 0.1 | 0.7 ± 0.1 | 8.9 ± 1.3 | > 15.6 | 221 | −0.68 |
| O=[N+]([O-])c1c(CS(=O)(=O)c2ccccc2)nc2c(Br)cc(Cl)cn12 [Hit A, 8-Bromo-6-chloro-3-nitro-2-(phenylsulfonylmethyl)imidazo[1,2-a]pyridine, reference compound] | 5.3 ± 1.1 | 2.1 ± 0.1 | > 15.6 | > 100 | – | −0.65 |
| CSc1ccc(OCc2ncc([N+](=O)[O-])n2C)cc1 [Fexinidazole, reference compound] | 1.2 ± 0.2 | 15.9 ± 3.2 | > 100 | > 100 | – | −0.83 |
| O=[N+]([O-])c1c(CS(=O)(=O)c2ccc(O)cc2)nc2c(Sc3ccc(Cl)cc3)cc(Cl)cn12 [Compound 3a, 4-{[(6-Chloro-8-[(4-Chlorophenyl)thio]-3-Nitroimidazo[1,2-a]pyridin-2-yl)methyl]sulfonyl}phenol] | 0.8 ± 0.2 | 2.7 ± 0.5 | 22.3 ± 2.5 | 28.2 ± 0.1 | 241 | – |
| O=[N+]([O-])c1c(CS(=O)(=O)c2ccccc2)nc2c(Sc3ccc(Cl)cc3)cc(Cl)cn12 [Hit B, reference compound] | 1 ± 0.3 | 3.2 ± 0.1 | > 100 | > 62.5 | – | −0.63 |

Reference: paper PMC9415646, “Improving Aqueous Solubility and In Vitro Pharmacokinetic Properties of the 3-Nitroimidazo[1,2-a]pyridine Antileishmanial Pharmacophore” (Pharmaceuticals, 2022)
